Consider 36 compounds from patent publication US8049037B2, “Sphingosine-1-phosphate (S1P) receptor antagonists and methods for use thereof” (Allergan, Inc., priority 2008, dated 2011).

The experiment concerns the target T1, human S1P3 receptor (Homo sapiens, UniProt Q99500).
T1 construct: expressed in transfected cells
As to the kind of experiment: S1P3 FLIPR Ca2+ assay in T24 cells stably expressing the human S1P3 receptor. The experiment is classed as cell-based. Conditions: for IC50: tested over 0.61 nM to 10,000 nM, read-out: IC50, activity potency human S1P3 receptor from FLIPR. Here is the method:
The compounds of the invention were tested for S1P3 activity using the Flipr assay. The compounds may be assessed for ability to activate or block activation of the human S1P3 receptor in T24 cells stably expressing the human S1P3 receptor. Ten thousand cells/well are plated into 384-well poly-D-lysine coated plates one day prior to use. The growth media for the S1P3 receptor expressing cell line McCoy's 5A medium supplemented with 10% charcoal-treated fetal bovine serum (FBS), 1% antibiotic-antimycotic and 400 μg/mL genetecin. On the day of the experiment, the cells are washed twice Hank's Balanced Salt Solution supplemented with 20 mM HEPES (HBSS/Hepes buffer). The cells are then dye loaded with 2 μM Fluo-4 diluted in the HBSS/Hepes buffer with 1.25 mM Probenecid and incubated at 37° C. for 40 minutes. Extracellular dye is removed by washing the cell plates four times prior to placing the plates in the FLIPR (Fluorometric Imaging Plate Reader, Molecular Devices). Ligands are diluted in HBSS/Hepes buffer and prepared in 384-well microplates. The positive control, Sphingosine-1-phosphate (SIP), is diluted in HBSS/Hepes buffer with 4 mg/mL fatty acid free bovine serum albumin. The FLIPR transfers 12.5 μL from the ligand microplate to the cell plate and takes fluorescent measurements for 75 seconds, taking readings every second, and then for 2.5 minutes, taking readings every 10 seconds. Drugs are tested over the concentration range of 0.61 nM to 10,000 nM. Data for Ca^+2 responses are obtained in arbitrary fluorescence units and not translated into Ca^+2 concentrations. IC50 values are determined through a […] analysis using the Levenburg Marquardt algorithm.

T1 sequence (Q99500 whole entry): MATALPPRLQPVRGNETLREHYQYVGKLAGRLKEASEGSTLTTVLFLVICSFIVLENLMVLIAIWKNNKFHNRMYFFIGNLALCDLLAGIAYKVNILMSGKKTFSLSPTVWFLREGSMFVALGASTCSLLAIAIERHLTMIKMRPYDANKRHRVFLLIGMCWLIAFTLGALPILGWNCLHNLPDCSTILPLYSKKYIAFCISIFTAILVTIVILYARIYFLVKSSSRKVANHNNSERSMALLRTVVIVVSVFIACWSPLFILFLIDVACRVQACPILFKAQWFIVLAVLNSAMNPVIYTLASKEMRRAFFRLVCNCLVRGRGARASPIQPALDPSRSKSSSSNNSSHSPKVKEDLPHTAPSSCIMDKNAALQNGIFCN

The IC50 is the concentration that inhibits the measured activity by half. Regarding `O=C(NC(Nc1ccc([N+](=O)[O-])cc1)C(Cl)(Cl)Cl)c1ccc(Cl)cc1` (stereo not drawn), the “% Antagonism, human S1P3 receptor from FLIPR” value (shortened to “% Antagonism”) is 93% and the IC50 is 1370 nM.
Consider `O=C(NC(Nc1ccccc1)C(Cl)(Cl)Cl)c1ccc(Br)cc1` (stereo not drawn), for which the “% Antagonism” value was determined as 97% and the IC50 worked out at 148 nM.
The like results for `COc1ccc(C(=O)NC(Nc2ccc(Cl)cc2)C(Cl)(Cl)Cl)cc1` (stereo not drawn) were, in that order, 96% and 278 nM.
The like results for `O=C(NC(Nc1ccc(Cl)cc1)C(Cl)(Cl)Cl)c1cccc(Cl)c1` (stereo not drawn) were, in that order, 94% and 1520 nM.
In the case of `COc1ccc(NC(NC(=O)c2ccc(Br)cc2)C(Cl)(Cl)Cl)cc1` (stereo not drawn), the “% Antagonism” value was 94% and the IC50 is 492 nM.
With `COc1ccc(C(=O)NC(Nc2ccc(C)cc2)C(Cl)(Cl)Cl)cc1` (stereo not drawn), the “% Antagonism” value came out at 98% and the IC50 stood at 466 nM.
The corresponding values for `O=C(NC(Nc1ccc(Br)cc1)C(Cl)(Cl)Cl)c1ccc([N+](=O)[O-])cc1` (stereo not drawn) are 91% and 1450 nM.
The corresponding values for `Cc1ccc(C(=O)NC(Nc2ccc(Cl)cc2)C(Br)(Br)Br)cc1` (stereo not drawn) are 76% and 1140 nM.
Consider `O=C(NC(Nc1ccccc1C(F)(F)F)C(Cl)(Cl)Cl)c1ccco1` (stereo not drawn), for which the “% Antagonism” value came out at 56% and the IC50 amounted to 1410 nM.
For the compound `O=C(NC(Nc1ccc(Br)cc1)C(Cl)(Cl)Cl)c1ccco1` (stereo not drawn), the “% Antagonism” value is 98% and the IC50 stood at 365 nM.
The corresponding values for `O=C(NC(Nc1ccc(Cl)cc1)C(Cl)(Cl)Cl)c1ccc(Br)cc1` (single isomer, unassigned; (-)) [(−)-4-bromo-N-(2,2,2-trichloro-1-(4-chlorophenylamino)ethyl)benzamide] are 96% and 16 nM.
In the case of `O=C(NC(Nc1ccc(Cl)cc1)C(Cl)(Cl)Cl)c1ccc(Br)cn1` (single isomer, unassigned; (-)) [(−)-5-bromo-N-(2,2,2-trichloro-1-(4-chlorophenylamino)ethyl)picolinamide], the “% Antagonism” value came out at 99% and the IC50 turned out to be 1.4 nM.
The like results for `O=C(NC(Nc1ccc(Cl)cc1)C(Cl)(Cl)Cl)c1ccc(F)c(F)c1` (stereo not drawn) [3,4-difluoro-N-(2,2,2-trichloro-1-(4-chlorophenylamino)ethyl)benzamide] were, in that order, 95% and 256 nM.
The corresponding values for `O=C(NC(Nc1ccc(Cl)cc1)C(Br)(Br)Br)c1ccc(Br)cc1` (stereo not drawn) [4-bromo-N-(2,2,2-tribromo-1-(4-chlorophenylamino)ethyl)benzamide] are 100% and 98 nM.
The like results for `O=C(NC(Nc1ccc(Cl)cc1)C(Cl)(Cl)Cl)c1ccc(Br)cc1` (stereo not drawn) [4-bromo-N-(2,2,2-trichloro-1-(4-chlorophenylamino)ethyl)benzamide] were, in that order, 96% and 28 nM.
In the case of `O=C(NC(Nc1ccc(Cl)cc1)C(Cl)(Cl)Cl)c1cc(Br)co1` (stereo not drawn) [4-bromo-N-(2,2,2-trichloro-1-(4-chlorophenylamino)ethyl)furan-2-carboxamide], the “% Antagonism” value was found to be 90% and the IC50 was determined as 9.5 nM.
The corresponding values for `Cc1ccc(NC(NC(=O)c2ccc(Br)cc2)C(Cl)(Cl)Cl)cc1` (stereo not drawn) [4-bromo-N-(2,2,2-trichloro-1-(p-tolylamino)ethyl)benzamide] are 100% and 73 nM.
The like results for `O=C(NC(Nc1ccc(Cl)cc1)C(F)(F)F)c1ccc(Br)cc1` (stereo not drawn) [4-bromo-N-[1-(4-chlorophenylamino)-2,2,2-trifluoro-ethyl]-benzamide] were, in that order, 100% and 2990 nM.
The like results for `O=C(NC(Nc1ccc(Cl)c(F)c1)C(Cl)(Cl)Cl)c1ccc(Br)cc1` (stereo not drawn) [4-bromo-N-[2,2,2-trichloro-1-(4-chloro-3-fluoro-phenylamino)-ethyl]-benzamide] were, in that order, 95% and 110 nM.
As for `O=C(NC(Nc1ccc(Cl)cc1)C(Cl)(Cl)Cl)c1ccc(Cl)cc1` (stereo not drawn) [4-chloro-N-(2,2,2-trichloro-1-(4-chlorophenylamino)ethyl)benzamide], the “% Antagonism” value worked out at 100% and the IC50 was determined as 145 nM.
The like results for `O=C(NC(Nc1ccc(Cl)cc1)C(F)(F)F)c1ccc(Br)cn1` (stereo not drawn) [5-Bromo-N-(1-(4-chlorophenylamino)-2,2,2-trifluoroethyl)picolinamide] were, in that order, 99% and 4.7 nM.
The like results for `O=C(NC(Nc1ccc(Cl)cc1)C(F)(F)Cl)c1ccc(Br)cn1` (stereo not drawn) [5-Bromo-N-(2-chloro-1-(4-chlorophenylamino)-2,2-difluoroethyl)picolinamide] were, in that order, 99% and 1650 nM.
The like results for `O=C(NC(Nc1ccc(Cl)cc1)C(Cl)(Cl)Cl)c1ccc(Cl)cn1` (stereo not drawn) [5-Chloro-N-(2,2,2-trichloro-1-(4-chlorophenylamino)ethyl)picolinamide] were, in that order, 98% and 6.3 nM.
Regarding `O=C(NC(Nc1ccc(Cl)cc1)C(Cl)(Cl)Cl)c1ccc(Br)cn1` (stereo not drawn) [5-bromo-N-(2,2,2-trichloro-1-(4-chlorophenylamino)ethyl)picolinamide], the “% Antagonism” value amounted to 99% and the IC50 worked out at 2 nM.
The like results for `O=C(NC(Nc1ccc(Cl)cc1)C(Cl)(Cl)Cl)c1ccc(Br)o1` (stereo not drawn) [5-bromo-furan-2-carboxylic acid (2,2,2-trichloro-1-(4-chloro-phenylamino)-ethyl)-amide] were, in that order, 95% and 711 nM.
The corresponding values for `O=C(NC(Nc1ccc(Cl)cc1)C(Cl)(Cl)Cl)c1ccc(Br)nc1` (stereo not drawn) [6-bromo-N-(2,2,2-trichloro-1-(4-chlorophenylamino)ethyl)nicotinamide] are 97% and 245 nM.
For the compound `O=C(NC(Nc1ccc(Cl)c(F)c1)C(Cl)(Cl)Cl)c1ccco1` (stereo not drawn) [Furan-2-carboxylic acid (2,2,2-trichloro-1-(4-chloro-3-fluoro-phenylamino)-ethyl)-amide], the “% Antagonism” value was determined as 98% and the IC50 stood at 291 nM.
The corresponding values for `Cc1ccc(NC(NC(=O)c2ccco2)C(Cl)(Cl)Cl)cc1` (stereo not drawn) [Furan-2-carboxylic acid (2,2,2-trichloro-1-p-tolylamino-ethyl)-amide] are 100% and 454 nM.
The corresponding values for `Cc1cccc(C)c1NC(NC(=O)c1ccco1)C(Cl)(Cl)Cl` (stereo not drawn) [N-{2,2,2-trichloro-1-[(2,6-dimethylphenyl)amino]ethyl}-2-furamide] are 41% and 1470 nM.
The like results for `Cc1ccc(NC(NC(=O)c2ccco2)C(Cl)(Cl)Cl)c(F)c1` (stereo not drawn) [N-{2,2,2-trichloro-1-[(2-fluoro-4-methylphenyl)amino]ethyl}-2-furamide] were, in that order, 102% and 1400 nM.
For the compound `O=C(NC(Nc1ccccc1F)C(Cl)(Cl)Cl)c1ccco1` (stereo not drawn) [N-{2,2,2-trichloro-1-[(2-fluorophenyl)amino]ethyl}-2-furamide], the “% Antagonism” value was found to be 98% and the IC50 was 1100 nM.
The corresponding values for `O=C(NC(Nc1cccc(F)c1)C(Cl)(Cl)Cl)c1ccco1` (stereo not drawn) [N-{2,2,2-trichloro-1-[(3-fluorophenyl)amino]ethyl}-2-furamide] are 100% and 363 nM.
The like results for `O=C(NC(Nc1ccc(Cl)cc1)C(Cl)(Cl)Cl)c1ccco1` (stereo not drawn) [N-{2,2,2-trichloro-1-[(4-chlorophenyl)amino]ethyl}-2-furamide] were, in that order, 98% and 270 nM.
Consider `Cc1cc(F)ccc1NC(NC(=O)c1ccco1)C(Cl)(Cl)Cl` (stereo not drawn) [N-{2,2,2-trichloro-1-[(4-fluoro-2-methylphenyl)amino]ethyl}-2-furamide], for which the “% Antagonism” value was found to be 95% and the IC50 stood at 1180 nM.
Consider `Cc1cc(NC(NC(=O)c2ccco2)C(Cl)(Cl)Cl)ccc1F` (stereo not drawn) [N-{2,2,2-trichloro-1-[(4-fluoro-3-methylphenyl)amino]ethyl}-2-furamide], for which the “% Antagonism” value is on record as 99% and the IC50 came out at 430 nM.
The like results for `O=C(NC(Nc1ccc(F)cc1)C(Cl)(Cl)Cl)c1ccco1` (stereo not drawn) [N-{2,2,2-trichloro-1-[(4-fluorophenyl)amino]ethyl}-2-furamide] were, in that order, 99% and 498 nM.
